Measured values as given in US7226623B2, “In vitro and in vivo anti-inflammatory effects of a sesquiterpene lactone extract from chicory (Cichorium intybus L.)” (Rutgers, The State University of New Jersey, priority 2005, dated 2007).

How the values were obtained:
[1] = test system: nitric oxide production by LPS-induced macrophages; assay: Griess assay for NO production; assay type: cell-based, murine; conditions: aspirin 10 μM, LPS 1 μg/mL, 24 hours
Method: Down-regulation of various pro-inflammatory genes, including iNOS, IL1β and TNF-α, can reduce nitric oxide production by macrophages. In order to confirm that changes in pro-inflammatory gene expression were affecting cellular function, the Griess assay was performed to indirectly measure nitric oxide production by LPS-induced macrophages by measuring nitrite. For the assay, RAW cells were plated in a 96-well plate at a minimum density of 5×10^3 cells/well and grown for 24 hours. […] After 24 hours, conditioned media (50 μl) was removed and immediately mixed with 100 μl of Griess reagent ([…], 1% naphthalene-ethylenediamine dihydrochloride in 5% H3PO4). After incubation for 15 minutes at room temperature, the samples were read at 550 nm using a microplate spectrophotometer (Molecular Devices, Sunnyvale, Calif.). Data for each treatment were normalized based on results from an MTT cell proliferation assay.

Wistar rats = assay: Carrageenan-induced rat paw edema; assay type: in vivo; conditions: indomethacin (15 mg/kg)
Method: Groups of 5 adult male and female Wistar rats with body weights from 136 g to 170 g were used for this study. Rats were housed five animals per cage in a room kept at 24-26° C. and fed ad libitium. Before the experiment began, rat paw sizes were recorded by measuring paw volume three times on each animal using a plethysmometer (Ugo Basile, Comerio VA, Italy). The values were averaged to give a baseline paw size value. To start the experiment, animals were given a subcutaneous injection of 1% carrageenan (100 μl; Sigma, St. Louis, Mo.) in the area of the back paw to induce an acute inflammatory reaction (paw edema). One hour after carrageenan injection, rats were orally gavaged with chicory extract or vehicle control (4% apricot kernel balm). Paw size was measured at 3 hours, 5 hours, and 24 hours after injection. The increase in paw edema at each time point was determined by comparison with paw volume measured pre-injection. Inhibition of edema was calculated by comparison with vehicle control at the same time point.

BALB/c mice = assay: Collagen induced arthritis (type II collagen mAbs with LPS challenge); assay type: in vivo; conditions: indomethacin 3 mg/kg oral
Method: Groups of 5 BALB/c mice weighing 25±2 g were used for this study. A 4 mg/mouse combination of 4 monoclonal antibodies (mAbs) against type II collagen (D8, F10, DI-2G, and A2; IBL Co., Japan) was administered to mice intravenously on day 0 of the study to induce an inflammatory reaction mimicking rheumatoid arthritis. On day 3 of the study, mice were given LPS ([…]) intravenously to potentiate the inflammatory effect. One hour after LPS administration, mice were dosed orally with chicory extract (200 mg/kg), indomethacin (3 mg/kg; Sigma, St. Louis, Mo.), or vehicle control (1% carboxymethylcellulose, CMC; Sigma, St. Louis, Mo.). Mice were dosed with chicory extract or vehicle for two more consecutive days. Volumes of both hind paws were measured using a plethysmometer on days 0, 5, 7, 10, 14, and 17. The increase in paw edema at each time point was determined by comparison with paw volume measured on day 0. Inhibition of edema was calculated by comparison with vehicle control at the same time point. This study was a GLP study (#1038342) performed by MDS Pharma Services (Taiwan).

CC(=O)Oc1ccccc1C(=O)O [aspirin]
Griess assay % LPS control [1]: 69%

COc1ccc2c(c1)c(CC(=O)O)c(C)n2C(=O)c1ccc(Cl)cc1 [indomethacin]
Rat Paw Edema, inhibition of edema vs vehicle control (Wistar rats; 3 h after carrageenan): 43% | Rat Paw Edema, inhibition of edema vs vehicle control (Wistar rats; 5 h after carrageenan): 36% | Rat Paw Edema, inhibition of edema vs vehicle control (Wistar rats; 24 h after carrageenan): 51% | Mouse arthritis % inhibition of edema (BALB/c mice; day 5): 83% | Mouse arthritis % inhibition of edema (BALB/c mice; day 7): 81% | Mouse arthritis % inhibition of edema (BALB/c mice; day 10): 82% | Mouse arthritis % inhibition of edema (BALB/c mice; day 14): 77% | Mouse arthritis % inhibition of edema (BALB/c mice; day 17): 85%
